In experiment [1] the test system is clonic seizures caused by pentylenetetrazole. The experiment in a line: Protection against clonic seizures caused by pentylenetetrazole in rats. It counts as in vivo. To be noted: Rattus norvegicus, oral, 2% starch vehicle, groups of at least 5, pentylenetetrazole 21 to 23 mg./kg. i.v. at estimated time of peak effect, read-out: Medium Effective Oral Dose ED50, protection against clonic seizures caused by pentylenetetrazole. The protocol: The anti-anxiety properties of the active compound of the present invention has been established in a test which indicates anxiolytic activity by the measure of protection from convulsions resulting from the administration of pentylenetetrazole. Graded dose levels of the compound of this invention were administered orally, in a 2% starch vehicle, to groups of at least 5 rats. At the estimated time of peak effect, the rats were treated intravenously with pentylenetetrazole at a dose of 21 to 23 mg./kg. of body weight. This dose is estimated to cause clonic seizures in 99% of unprotected rats. The effective dose (ED50) of the test compound for protection of 50% of the animals is calculated by the method of D. H. Finney in "Statistical Methods in Biological Assay", Second Edition, Hafner Publishing Co., New York, 1964, pp. 456-457. Representative results are given in the table which follows in comparison with chlordiazepoxide and meprobamate, which were tested in exactly the same manner. It has been reported [R. T. Hill and D. H. Tedeschi, "Animal Testing and Screening Procedures in Evaluating Psychotropic Drugs" in An Introduction of Psychopharmacology, Eds. R. R. Rech and K. E. Moore, Raven Press, New York, pp. 237-288 (1971)] that there is a high degree of correlation between antagonism of pentylenetetrazole seizures in rats and anti-anxiety effects in higher warm-blooded animals.

The test system of experiment [2] is conflict situation induced in rats (number of shocks received). In words: Non-conditioned passive avoidance (conflict) procedure in rats. To be noted: Sprague-Dawley rats, positive = 9 or more shocks in 4 to 5 minutes; for ED50: Rattus norvegicus, oral, comparison drugs tested in exactly the same manner, read-out: median effective dose (ED50). Type of experiment: in vivo. As to the method: Another test which has been used to assess anti-anxiety effects is a non-conditioned passive avoidance procedure described by J. R. Vogel, B. Beer and D. E. Clody, "A Simple and Reliable Conflict Procedure for Testing Anti-Anxiety Agents", Psychopharmacologia, Vol. 21, pp. 1-7 (1971). A conflict situation is induced in rats by a modification of this method. To groups of six naive Sprague-Dawley rats (200-220 grams), previously deprived of water for forty-eight hours and food for 24 hours, are administered graded oral doses of test compound suspended in 2% starch vehicle also containing 2 drops of polyethylene glycol and polysorbate 80, or vehicle alone (controls). At the time of peak effect each rat is placed in a plexiglass box fitted with a drinkometer circuit connected between the stainless steel grid floor and a stainless steel drinking tube inserted in a hole in one of the walls of the box. A stimulator supplying monophasic 60 cycle square wave pulses of 0.2 milliamperes peak intensity, a timer which allows alternate 5 second " shock free" and 5 second "shock available" periods during a 5 minute test period, an electromagnetic counter to count the number of shocks received by the rat during the shock available period and a delay of one half second between the successive shocks are incorporated into the drinkometer circuit. After the rat is placed in the box, it is allowed to explore and drink 10% dextrose solution supplied through the tap. After twenty seconds of continuous unpunished drinking, the timer and drinkometer circuits are activated and 5 second shock free and 5 second shock available periods alternate. The number of shocks received by the rat during a 5 minute test period is recorded. The percentage of rats that receive 9 or more shocks in 4 to 5 minutes at each dose level is used as positive response in calculation of the median effective dose (ED50). The estimated (ED50) for the compound 3-methyl-6-phenyl-1,2,4-triazolo[4,3-b]pyridazine after one hour from oral administration is 100 mg./kg.

Regarding `Cc1nnc2ccc(-c3ccccc3)nn12` [3-methyl-6-phenyl-1,2,4-triazolo[4,3-b]pyridazine], in experiment [1], the ED50 is 3 mg/kg. Further, the “estimated median effective dose (ED50)” value in experiment [2] (one hour after oral administration) was 100 mg/kg.

As for `CNC1=Nc2ccc(Cl)cc2C(c2ccccc2)=[N+]([O-])C1` [Chlordiazepoxide], the ED50 was 2.5 mg/kg in experiment [1] and 9.6 mg/kg in experiment [2].

In the case of `CCCC(C)(COC(N)=O)COC(N)=O` [Meprobamate], the ED50 was 22 mg/kg in experiment [1] and 51.9 mg/kg in experiment [2].
